One experiment addresses human FPR2 (Homo sapiens (Human), UniProt P25090). As to the kind of experiment: FPR2 cyclic adenosine monophosphate (cAMP) assay. In kind it is cell-based. The settings on record: CHO cells overexpressing human FPR2; forskolin 5 µM; inhibition of cAMP production; read-out: hFPR2 cAMP2 EC50. Put shortly:
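Inhibition of forskolin-driven (5 µM) cAMP, with 200 µM IBMX, measured in human FPR2-expressing CHO cells, 2,000 per well, 30 min at room temperature; compounds tested 0.020 nM to 100 µM in 1% DMSO. HTRF 665/590 ratio converted to cAMP via calibration curve, then 4-parameter fit.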
(Cyclic AMP is a second messenger, typically raised through Gs and lowered through Gi signalling.)

Another experiment addresses human FPR1 (Homo sapiens (Human), UniProt P21462). As to the kind of experiment: FPR1 cyclic adenosine monophosphate (cAMP) assay. The class given is cell-based. The settings on record: CHO cells overexpressing human FPR1; forskolin 10 µM; inhibition of cAMP production; read-out: hFPR1 cAMP EC50. The method in brief: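 Human FPR1-expressing CHO cells were used at 4,000 per well, with compound at 0.020 nM–100 µM in 1% DMSO. Potency came from a 4-parameter logistic fit.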

Chain of human FPR1 (P21462 whole entry): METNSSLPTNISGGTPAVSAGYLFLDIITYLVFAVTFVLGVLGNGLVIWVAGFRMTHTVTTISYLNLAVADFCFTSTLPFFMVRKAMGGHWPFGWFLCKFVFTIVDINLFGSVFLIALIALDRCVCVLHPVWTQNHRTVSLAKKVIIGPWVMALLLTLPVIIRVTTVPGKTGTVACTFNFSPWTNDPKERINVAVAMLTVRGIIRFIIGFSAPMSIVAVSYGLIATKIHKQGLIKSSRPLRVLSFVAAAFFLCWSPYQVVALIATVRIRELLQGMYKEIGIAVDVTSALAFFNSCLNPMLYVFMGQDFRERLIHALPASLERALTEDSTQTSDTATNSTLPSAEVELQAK
Chain of human FPR2 (P25090 whole entry): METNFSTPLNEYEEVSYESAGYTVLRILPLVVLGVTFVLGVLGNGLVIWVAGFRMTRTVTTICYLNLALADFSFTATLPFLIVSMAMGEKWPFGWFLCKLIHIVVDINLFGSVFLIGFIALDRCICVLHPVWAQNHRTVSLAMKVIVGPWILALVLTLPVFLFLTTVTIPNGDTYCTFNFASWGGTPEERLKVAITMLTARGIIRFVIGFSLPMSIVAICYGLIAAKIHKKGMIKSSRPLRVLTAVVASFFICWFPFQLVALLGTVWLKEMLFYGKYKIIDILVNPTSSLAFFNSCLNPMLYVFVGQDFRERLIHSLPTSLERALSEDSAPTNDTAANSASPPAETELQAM

Consider `COc1cc(F)c([C@@H]2CN(c3c(C)ccn(C(CO)C(F)(F)F)c3=O)C(=O)[C@H]2NC(=O)c2ccc(OC(F)F)cc2)c(F)c1` (stereo partly shown) [Example 706], for which the EC50 – broadly, the concentration giving half of the maximal effect – on human FPR2 was 0.0094 µM; on human FPR1 it was 0.019 µM.

In the case of `COc1cc(F)c([C@@H]2CN(c3c(C)ccn(C(CO)C(F)(F)F)c3=O)C(=O)[C@H]2NC(=O)c2ccc(OC(F)F)cc2)c(F)c1` (stereo partly shown) [Example 707], the EC50 turned out to be 0.0054 µM on human FPR2 and 0.13 µM on human FPR1.

As to `COc1cc(F)c([C@@H]2CN(c3nccc(OC4CCOC4)c3C(F)(F)F)C(=O)[C@H]2NC(=O)c2ccc(Cl)cc2)c(F)c1` (stereo partly shown) [Example 708], the EC50 is 0.011 µM on human FPR2 and greater than 1 µM on human FPR1.

On to `COc1cc(F)c([C@@H]2CN(c3nccc(OC4CCOC4)c3C(F)(F)F)C(=O)[C@H]2NC(=O)c2ccc(Cl)cc2)c(F)c1` (stereo partly shown) [Example 709], for which the EC50 on human FPR2 was 0.014 µM; on human FPR1, 0.21 µM.

Take `COc1cc(F)c([C@@H]2CN(c3cncn(C4CCNC4)c3=O)C(=O)[C@H]2NC(=O)c2ccc(Cl)cc2)c(F)c1` (stereo partly shown) [Example 710]: the EC50 was 0.004 µM at human FPR2 and 0.49 µM at human FPR1.

Turning to `COc1cc(C2CCN(CCF)CC2)nc(N2C(=O)[C@@H](NC(=O)c3ccc(OC(F)F)cc3)[C@H](c3c(F)cc(OC)cc3F)[C@@H]2C)c1` [Example 711], the EC50 on human FPR2 was found to be 0.0042 µM; on human FPR1, 3.4 µM.

For `COc1cc(F)c([C@@H]2CN(c3cncn(C4CCN(C)C4)c3=O)C(=O)[C@H]2NC(=O)c2ccc(Cl)cc2)c(F)c1` (stereo partly shown) [Example 713], the EC50 on human FPR2 is 0.004 µM; on human FPR1 it was greater than 5 µM.

For the molecule `COc1cc(F)c([C@@H]2CN(c3cncn(C4CCNC4)c3=O)C(=O)[C@H]2NC(=O)c2ccc(Cl)cc2)c(F)c1` (stereo partly shown) [Example 714], the EC50 on human FPR2 is 0.0064 µM; on human FPR1 it was 3.6 µM.

Take `COc1cc(F)c([C@@H]2CN(c3cc(C)cc(C4CCN(CCO)CC4)n3)C(=O)[C@H]2NC(=O)c2ccc(OC(F)F)cc2)c(F)c1` [Example 715]: the EC50 at human FPR2 is 0.0055 µM; on human FPR1 it was greater than 5 µM.

As to `COc1cc(F)c([C@@H]2CN(c3cc(C)cc(C4CCNCC4)n3)C(=O)[C@H]2NC(=O)c2ccc(OC(F)F)cc2)c(F)c1` [Example 716], the EC50 on human FPR2 was 0.0057 µM; on human FPR1, greater than 5 µM.

Regarding `COc1cc(F)c([C@@H]2CN(c3cccc(C4CCCNC4)n3)C(=O)[C@H]2NC(=O)c2ccc(OC(F)F)cc2)c(F)c1` (stereo partly shown) [Example 718], the figures for the 50% effective concentration (EC50) on human FPR2 and at human FPR1 were 0.0009 µM and 0.84 µM, respectively.

On to `COc1cc(F)c([C@@H]2CN(c3cccc(C4CCCNC4)n3)C(=O)[C@H]2NC(=O)c2ccc(OC(F)F)cc2)c(F)c1` (stereo partly shown) [Example 719], for which the EC50 on human FPR2 came to 0.0014 µM; at human FPR1, 1.9 µM.

On to `COc1cc(C2CCN(CC(C)(C)O)CC2)nc(N2C[C@@H](c3c(F)cc(OC)cc3F)[C@H](NC(=O)c3ccc(OC(F)F)cc3)C2=O)c1` [Example 720], for which the half-maximal effective concentration (EC50) at human FPR2 is 0.0039 µM; at human FPR1, greater than 5 µM.

With `COc1cc(F)c([C@@H]2CN(c3cncn(C4CCN(C)C4)c3=O)C(=O)[C@H]2NC(=O)c2ccc(Cl)cc2)c(F)c1` (stereo partly shown) [Example 721], the values for the half-maximal effective concentration (EC50) on human FPR2 and on human FPR1 were 0.0056 µM and greater than 5 µM, respectively.
